Values of other authors, collected in patent publication US20200068939A1, “Nutritional compositions to increase and sustain blood ketone levels” (JHO Intellectual Property Holdings LLC, priority 2018, published 2020).

Assays:
[1] = acute ingestion, 15 min to 6 hr
[2] = not given; remark: listed apart in the source

| bHB in short-term nutritional ketosis [1] [mM] | blood βHB concentration at the start of the OGTT ([2]; 482 mg/kg 30 min before glucose bolus) [mM] | blood βHB concentration at the end of the OGTT ([2]; 482 mg/kg 30 min before glucose bolus, end of 2 h test) [mM] | SMILES | stimulation of ketone production (2.5 mg/kg given at breakfast) | plasma free fatty acids (2.5, 5.0 mg/kg given at breakfast) | reduction in 2 h AUC for serum FFAs ([2]; 482 mg/kg, 2 h) [%] | reduction of plasma glucose AUC ([2]; 482 mg/kg, over the 2 h period) [%] |
| --- | --- | --- | --- | --- | --- | --- | --- |
| – | – | – | Cn1c(=O)c2c(ncn2C)n(C)c1=O [Caffeine] | +88% | raised plasma free fatty acids | – | – |
| > 1 | ~3 | ~1.5 | C[C@@H](O)CCOC(=O)C[C@@H](C)O [KME, (R)-3-hydroxybutyl (R)-3-hydroxybutyrate] | – | – | 44 | 16 |
